Entries after “also recorded” stand apart in the source; their conditions may differ. Read-outs that look alike come from different tables or passages of the source.
Key:
[1] = molecular target: T1, human glucocorticoid receptor alpha (hGRα) (Homo sapiens, UniProt P04150); experiment: cell-based; format: cell-based
T1 sequence (P04150 1-777): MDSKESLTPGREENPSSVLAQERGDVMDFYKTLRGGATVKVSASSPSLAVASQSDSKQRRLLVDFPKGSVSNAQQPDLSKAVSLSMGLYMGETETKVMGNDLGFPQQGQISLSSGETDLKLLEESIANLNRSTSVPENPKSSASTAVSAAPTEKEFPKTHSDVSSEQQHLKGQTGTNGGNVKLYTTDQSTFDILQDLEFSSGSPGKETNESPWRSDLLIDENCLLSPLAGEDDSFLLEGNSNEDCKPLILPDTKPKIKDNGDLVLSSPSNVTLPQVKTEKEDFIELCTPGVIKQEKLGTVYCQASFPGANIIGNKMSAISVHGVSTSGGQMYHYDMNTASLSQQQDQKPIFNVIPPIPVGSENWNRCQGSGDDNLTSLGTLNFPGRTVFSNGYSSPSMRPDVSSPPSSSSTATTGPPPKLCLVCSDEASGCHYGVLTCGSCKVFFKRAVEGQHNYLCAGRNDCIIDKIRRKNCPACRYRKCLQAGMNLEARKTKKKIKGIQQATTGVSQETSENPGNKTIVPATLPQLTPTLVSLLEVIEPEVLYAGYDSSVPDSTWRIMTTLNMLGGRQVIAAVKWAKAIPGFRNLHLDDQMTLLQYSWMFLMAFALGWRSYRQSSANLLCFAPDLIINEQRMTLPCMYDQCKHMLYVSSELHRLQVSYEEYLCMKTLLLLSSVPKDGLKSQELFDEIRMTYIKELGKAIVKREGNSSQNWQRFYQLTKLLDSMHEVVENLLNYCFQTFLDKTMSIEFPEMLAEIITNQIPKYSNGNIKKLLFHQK

hGRα [2] = molecular target: T2, hGRα (Homo sapiens, UniProt P04150); experiment: cell-based; format: cell-based; details: for RCP (relative corticoid potency): ratio EC50 of dexamethasone / EC50 of compound
T2 sequence (P04150 1-777): T1 sequence (P04150 1-777)

[3] = molecular target: T1, human glucocorticoid receptor alpha (hGRα); format: cell-based; details: yeast
AR [4] = details: yeast-based AR bioassay; cited from earlier work
AR [5] = details: U2-OS-based CALUX analogue (AR); cited from earlier work
hGRα [6] = molecular target: T2, hGRα; format: cell-based; details: GR-CALUX, co-exposure with 1 or 10 nM dexamethasone
PR = details: yeast-based PR bioassay; cited from earlier work
[7] = co-exposure with budesonide (5 or 50 μM)
[8] = GR-CALUX, agonism, 24 h exposure
[9] = co-exposure with 150 or 500 μM dexamethasone

Structure (SMILES): CC(=O)OCC(=O)[C@@]1(O)CC[C@H]2[C@@H]3CCC4=CC(=O)CC[C@]4(C)[C@@]3(F)[C@@H](O)C[C@@]21C [Fludrocortisone-21-acetate, fludrocortisone-21-acetate]
- EC50 [1]: Not active
- agonistic response (luciferase activity), in words (hGRα [2]; compound alone, GR-CALUX): active

Structure (SMILES): Clc1ccc(-c2c(Cl)cc(Cl)cc2Cl)c(Cl)c1 [PCB100]
- GR antagonism, in words [3, 7]: only act as GR antagonists

Structure (SMILES): C[C@]12CC[C@@H]3c4ccc(O)cc4CC[C@H]3[C@@H]1CC[C@@H]2O [17β-Estradiol (E2), 17β-estradiol]
- EC50 [1]: Not active
- RCP (relative corticoid potency) [1]: 0.0
- agonistic response (production of yEGFP), in words [1]: no agonistic response
- EC50 (hGRα [2]; [8]): Not active
- RCP (relative corticoid potency) (hGRα [2]; GR-CALUX): 0

Structure (SMILES): C[C@@H]1C[C@H]2[C@@H]3CCC4=CC(=O)C=C[C@]4(C)[C@@]3(F)[C@@H](O)C[C@]2(C)[C@@]1(O)C(=O)CO [Dexamethasone, dexamethasone]
- agonistic response (production of yEGFP), in words [1]: dose-related increase in the production of yEGFP
- agonistic response (luciferase activity), in words (hGRα [2]): dose-related increase in luciferase activity

Structure (SMILES): Clc1ccc(Cl)c(-c2cc(Cl)cc(Cl)c2Cl)c1 [PCB92]
- GR antagonism, in words [3, 7]: acts as a GR antagonist
- agonistic response (production of yEGFP), in words [1]: slight agonistic effect

Structure (SMILES): CN(C)c1ccc([C@H]2C[C@@]3(C)[C@@H](CC[C@@]3(O)C#Cc3ccc(S(C)(=O)=O)cc3)[C@@H]3CCC4=CC(=O)CCC4=C32)cc1 [Org 34850]
- GR antagonism, in words [3, 9]: only slightly acted as GR antagonists
- GR antagonism, in words (hGRα [6]): pure GR antagonist

Structure (SMILES): C[C@]12CCC(=O)C=C1CC[C@@H]1[C@@H]2C(=O)C[C@@]2(C)[C@H]1CC[C@]2(O)C(=O)CO [Cortisone, cortisone]
- EC50 [1]: Not active
- RCP (relative corticoid potency) [1]: 0.0
- agonistic response (production of yEGFP), in words [1]: no response
- EC50 (hGRα [2]; [8]): Not active
- agonistic response (luciferase activity), in words (hGRα [2]; compound alone, GR-CALUX): no response
- RCP (relative corticoid potency) (hGRα [2]; GR-CALUX): 0

Structure (SMILES): C[C@]12CCC(=O)C=C1CC[C@@H]1[C@@H]2[C@@H](O)C[C@]2(C=O)[C@@H](C(=O)CO)CC[C@@H]12 [Aldosterone]
- RCP (relative corticoid potency) [1]: 0.2
- agonistic response (production of yEGFP), in words [1]: dose-related increase in the production of yEGFP
- EC50 ([1]; EC50): 705 µM
- EC50 (hGRα [2]): 0.495 µM
- agonistic response (luciferase activity), in words (hGRα [2]; compound alone, GR-CALUX): dose-related increase in luciferase activity
- RCP (relative corticoid potency) (hGRα [2]; GR-CALUX): 0.004

Structure (SMILES): C[C@]12C[C@H](O)[C@H]3[C@@H](CCC4=CC(=O)CC[C@@]43C)[C@@H]1CC[C@@H]2C(=O)CO [Corticosterone, corticosterone]
- RCP (relative corticoid potency) [1]: 1.7
- agonistic response (production of yEGFP), in words [1]: dose-related increase in the production of yEGFP
- EC50 ([1]; EC50): 71 µM
- EC50 (hGRα [2]): 0.08 µM
- agonistic response (luciferase activity), in words (hGRα [2]; compound alone, GR-CALUX): dose-related increase in luciferase activity
- RCP (relative corticoid potency) (hGRα [2]; GR-CALUX): 0.03

Structure (SMILES): C[C@]12C=CC(=O)C=C1CC[C@@H]1[C@@H]2[C@@H](O)C[C@@]2(C)[C@H]1CC[C@]2(O)C(=O)CO [Prednisolone, prednisolone]
- agonistic response (production of yEGFP), in words [1]: dose-related increase in the production of yEGFP
- agonistic response (luciferase activity), in words (hGRα [2]): dose-related increase in luciferase activity

Structure (SMILES): C[C@]12C=CC(=O)C=C1CC[C@H]1[C@@H]3C[C@@H](O)[C@](O)(C(=O)CO)[C@@]3(C)C[C@H](O)[C@@]12F [Triamcinolone, triamcinolone]
- EC50 [1]: Active^a
- RCP (relative corticoid potency) [1]: Active
- EC50 (hGRα [2]): 0.019 µM
- RCP (relative corticoid potency) (hGRα [2]; GR-CALUX): 0.1

Structure (SMILES): Clc1ccc(-c2ccc(Cl)cc2Cl)c(Cl)c1 [PCB47]
- GR antagonism, in words [3, 7]: only act as GR antagonists

Structure (SMILES): C[C@]12CCC(=O)C[C@@H]1CC[C@@H]1[C@@H]2CC[C@]2(C)[C@@H](O)CC[C@@H]12 [5α-Dihydrotestosterone, 5α-dihydrotestosterone]
- EC50 (hGRα [2]): Not active

Structure (SMILES): Clc1ccc(Cl)c(-c2cc(Cl)c(Cl)cc2Cl)c1 [PCB101]
- inhibition of the response caused by 5 μM budesonide, in words ([3]; co-exposure with 5 μM budesonide): almost fully inhibiting
- inhibition of the response caused by 50 μM budesonide ([3]; co-exposure with 50 μM budesonide): 50%
- GR antagonism, in words [3, 7]: strongest GR antagonist
- agonistic response (production of yEGFP), in words [1]: agonistic effect that is almost comparable with that of triamcinolone and progesterone

Structure (SMILES): C[C@]12CCC(=O)C=C1CC[C@@H]1[C@@H]2[C@@H](O)C[C@@]2(C)[C@H]1CC[C@]2(O)C(=O)CO [Cortisol, cortisol]
- agonistic response (production of yEGFP), in words [1]: dose-related increase in the production of yEGFP
- agonistic response (luciferase activity), in words (hGRα [2]; compound alone, GR-CALUX): dose-related increase in luciferase activity

Structure (SMILES): CCCC1O[C@@H]2C[C@H]3[C@@H]4CCC5=CC(=O)C=C[C@]5(C)[C@H]4[C@@H](O)C[C@]3(C)[C@]2(C(=O)CO)O1 (stereo partly drawn) [Budesonide, budesonide]
- agonistic response (production of yEGFP), in words [1]: dose-related increase in the production of yEGFP; also recorded: much more potent than Dex
- limit of detection [1]: 0.5 µM
- agonistic response (luciferase activity), in words (hGRα [2]; compound alone, GR-CALUX): equally potent

Structure (SMILES): C[C@H]1C[C@H]2[C@@H]3CCC4=CC(=O)C=C[C@]4(C)[C@@]3(F)[C@@H](O)C[C@]2(C)[C@@]1(O)C(=O)CO [Betamethasone, betamethasone]
- agonistic response (production of yEGFP), in words [1]: dose-related increase in the production of yEGFP
- agonistic response (luciferase activity), in words (hGRα [2]): dose-related increase in luciferase activity

Structure (SMILES): CC#C[C@]1(O)CC[C@H]2[C@@H]3CCC4=CC(=O)CCC4=C3[C@@H](c3ccc(N(C)C)cc3)C[C@@]21C [Mifepristone, mifepristone]
- GR antagonism, in words [3, 9]: only slightly acted as GR antagonists
- GR antagonism, in words (hGRα [6]): pure GR antagonists
- EC50 (hGRα [2]): Not active^b

— publication PMC3140938 (Analytical and Bioanalytical Chemistry, 2011)
